Assay results as given in PubChem BioAssay (NCI).
Where “and” joins values, the source holds several entries; their conditions need not be identical. Identical values can stand only once.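 How tested: cells in 96-well plates exposed to compound for 48 hours at five concentrations. GI50 = concentration required for 50% inhibition of growth. Definition used: TGI = concentration required for complete inhibition of growth.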

System: OVCAR-4 ovarian
Experiment: NCI tumour cell line growth inhibition, 48 h

SMILES | GI50 [µM] | TGI [µM]
CNCCNc1c2c(c(NCCNC)c3c(CN(C)C)c[nH]c13)C(=O)c1ccccc1C2=O | 4.79 | 17.5
O=C1NC(=Nc2ccccc2)S/C1=C\c1ccc2ncccc2c1 | > 25 | > 25
C/C1=C\CC[C@@]2(C)O[C@@H]2[C@H]2OC(=O)[C@@H](CN(C)C)[C@@H]2CC1 | 16.6 | 40
Oc1ccc(Cl)cc1Cc1cc(Cl)cc(Cl)c1O | 3.48 | 23.3
C=C(C=O)C1CCC2(C(=O)O)CCC3(C)C(CCC4C5(C)CCC(O)C(C)(C)C5CCC43C)C12 (stereo not given) | 4.83 | 22.2
COc1ccc(N2C(=O)C(c3ccccc3)(c3ccccc3)C23C(=O)N(C)c2ccccc23)cc1 (stereo not given) | > 100 | > 100
COc1ccc(C2S/C(=C\c3ccccc3O)C(=O)N2NC(=O)Cc2ccccc2)cc1 (stereo not given) |  | > 100
Cc1ccc(S(=O)(=O)NCC2CCCCC2=O)cc1 (stereo not given) |  | > 100
CNC(=S)NC1CCCCC1NC(=S)NC (stereo not given) |  | > 100
CC1OC(n2cc(F)c(=O)[nH]c2=O)C=CC1O (stereo not given) |  | > 100
C=C(C=O)[C@@H]1C2OC(=O)C(=C)[C@@H]2CC(O)[C@@]1(C)CC (stereo not given in full) |  | > 30.2
C=C(CCCCC)CN1CCCC1[C@@](C)(O)CC(=O)OCC (stereo not given in full) |  | > 100
NC(=NCCCOc1ccc(Cl)cc1)Nc1ccc(C(F)(F)F)cc1 | 2.15 | 8.01
O=C1c2ccccc2C(=O)C1(Cl)C1(S(=O)(=O)O)c2ccccc2-c2ccccc21 |  | > 100

System: SK-OV-3 ovarian
Experiment: NCI tumour cell line growth inhibition, 48 h

SMILES | GI50 [µM] | TGI
O=S(=O)([O-])c1ccc2c(c1)-c1nc-2nc2[n-]c(nc3nc(nc4[n-]c(n1)c1ccc(S(=O)(=O)[O-])cc41)-c1cc(S(=O)(=O)[O-])ccc1-3)c1ccc(S(=O)(=O)[O-])cc21.[Cu+2].[Na+] | 97.9 | > 100 µM
CC(C)c1ccc(Nc2ccc3c(OCCCN4CCN(C)CC4)cccc3n2)cc1 | 15.7 | 31.2 µM
CCCCOC(=O)C1C(c2ccc(Cl)cc2)NC(c2ccc(Cl)cc2)C(C(=O)OCCCC)S1(=O)=O (stereo not given) |  | > 100 µM
Cc1cc(Br)cc(C)c1NC(=O)C(=O)C(C(=O)c1ccc2ccccc2c1)C1OC(=O)c2ccccc21 (stereo not given) |  | > 100 µM
CC(=O)Nc1ccc(C(=O)NN2C(=O)C(Cl)C2c2ccccc2)cc1 (stereo not given) |  | > 100 µM
COc1ccc2c(c1)C(C)Cc1c(Cl)ncnc1N2C (stereo not given) | 0.504 | 17.3 µM
C#Cc1cccc(Nc2ncnc3cc(OC)c(OCCCCCCC(=O)NO)cc23)c1 | 0.208 | 1.03 µM
Cc1ccc(SC(C)/C=C/NNC2=NC(c3ccccc3)C(c3ccccc3)=NN2)cc1 (stereo not given) |  | > 100 µM
Cc1nnc(S(=O)(=O)c2ccc(N=Nc3c(N)nc(N)nc3N)cc2)s1 |  | > 100 µM
O=c1n(CC2CO2)c(=O)n(CC2CO2)c(=O)n1CC1CO1 (stereo not given) | 6.86 | 123 µM and > 100 µM
Cc1ccc(C(SCC(N)C(=O)O)(c2ccccc2)c2ccc(C)cc2)cc1 (stereo not given) | 0.0811 | 19.6 µM
COc1cc(Nc2cn[nH]c2-c2ccc(Cl)cc2)cc(OC)c1OC | 4.92 | 36.6 µM
CNCCNc1c2c(c(NCCNC)c3c(CN(C)C)c[nH]c13)C(=O)c1ccccc1C2=O | 17.1 | 50.8 µM
O=C1NC(=Nc2ccccc2)S/C1=C\c1ccc2ncccc2c1 | > 25 | > 25 µM
C/C1=C\CC[C@@]2(C)O[C@@H]2[C@H]2OC(=O)[C@@H](CN(C)C)[C@@H]2CC1 | 27.6 | 54 µM
Oc1ccc(Cl)cc1Cc1cc(Cl)cc(Cl)c1O | 2.93 | 13.1 µM
C=C(C=O)C1CCC2(C(=O)O)CCC3(C)C(CCC4C5(C)CCC(O)C(C)(C)C5CCC43C)C12 (stereo not given) | 7.37 | 19.6 µM
COc1ccc(N2C(=O)C(c3ccccc3)(c3ccccc3)C23C(=O)N(C)c2ccccc23)cc1 (stereo not given) | > 100 | > 100 µM
COc1ccc(C2S/C(=C\c3ccccc3O)C(=O)N2NC(=O)Cc2ccccc2)cc1 (stereo not given) |  | > 100 µM
Cc1ccc(S(=O)(=O)NCC2CCCCC2=O)cc1 (stereo not given) |  | > 100 µM
CNC(=S)NC1CCCCC1NC(=S)NC (stereo not given) |  | > 100 µM
CC1OC(n2cc(F)c(=O)[nH]c2=O)C=CC1O (stereo not given) |  | > 100 µM
C=C(C=O)[C@@H]1C2OC(=O)C(=C)[C@@H]2CC(O)[C@@]1(C)CC (stereo not given in full) |  | 99.9 µM
C=C(CCCCC)CN1CCCC1[C@@](C)(O)CC(=O)OCC (stereo not given in full) |  | > 100 µM
NC(=NCCCOc1ccc(Cl)cc1)Nc1ccc(C(F)(F)F)cc1 | 4.68 | 18.1 µM
O=C1c2ccccc2C(=O)C1(Cl)C1(S(=O)(=O)O)c2ccccc2-c2ccccc21 |  | > 100 µM

System: HL-60(TB) leukemia
Experiment: NCI tumour cell line growth inhibition, 48 h

SMILES | GI50 | TGI
O=S(=O)([O-])c1ccc2c(c1)-c1nc-2nc2[n-]c(nc3nc(nc4[n-]c(n1)c1ccc(S(=O)(=O)[O-])cc41)-c1cc(S(=O)(=O)[O-])ccc1-3)c1ccc(S(=O)(=O)[O-])cc21.[Cu+2].[Na+] | 0.174 µM | > 17.7 µM
CC(C)c1ccc(Nc2ccc3c(OCCCN4CCN(C)CC4)cccc3n2)cc1 | 10.5 µM | 28.8 µM
CCCCOC(=O)C1C(c2ccc(Cl)cc2)NC(c2ccc(Cl)cc2)C(C(=O)OCCCC)S1(=O)=O (stereo not given) |  | > 100 µM
Cc1cc(Br)cc(C)c1NC(=O)C(=O)C(C(=O)c1ccc2ccccc2c1)C1OC(=O)c2ccccc21 (stereo not given) |  | 30.2 µM
CC(=O)Nc1ccc(C(=O)NN2C(=O)C(Cl)C2c2ccccc2)cc1 (stereo not given) |  | > 100 µM
COc1ccc2c(c1)C(C)Cc1c(Cl)ncnc1N2C (stereo not given) | 2 µM | 7.06 µM
C#Cc1cccc(Nc2ncnc3cc(OC)c(OCCCCCCC(=O)NO)cc23)c1 | 0.334 µM | 1.7 µM
Cc1ccc(SC(C)/C=C/NNC2=NC(c3ccccc3)C(c3ccccc3)=NN2)cc1 (stereo not given) |  | 42.5 µM
Cc1nnc(S(=O)(=O)c2ccc(N=Nc3c(N)nc(N)nc3N)cc2)s1 |  | 97.8 µM
O=c1n(CC2CO2)c(=O)n(CC2CO2)c(=O)n1CC1CO1 (stereo not given) | 5.21 µM and 2.39 µM | 28.1 µM and > 100 µM
Cc1ccc(C(SCC(N)C(=O)O)(c2ccccc2)c2ccc(C)cc2)cc1 (stereo not given) | 0.235 µM | 0.588 µM
COc1cc(Nc2cn[nH]c2-c2ccc(Cl)cc2)cc(OC)c1OC | 2.6 µM | 28.6 µM
CNCCNc1c2c(c(NCCNC)c3c(CN(C)C)c[nH]c13)C(=O)c1ccccc1C2=O | 4.14 µM | > 100 µM
O=C1NC(=Nc2ccccc2)S/C1=C\c1ccc2ncccc2c1 | 1.42 µM | > 25 µM
C/C1=C\CC[C@@]2(C)O[C@@H]2[C@H]2OC(=O)[C@@H](CN(C)C)[C@@H]2CC1 | 1.46 µM | 7.24 µM
Oc1ccc(Cl)cc1Cc1cc(Cl)cc(Cl)c1O | 4.64 µM | 28.6 µM
C=C(C=O)C1CCC2(C(=O)O)CCC3(C)C(CCC4C5(C)CCC(O)C(C)(C)C5CCC43C)C12 (stereo not given) | 4.1 µM | > 100 µM
COc1ccc(N2C(=O)C(c3ccccc3)(c3ccccc3)C23C(=O)N(C)c2ccccc23)cc1 (stereo not given) | > 100 µM | > 100 µM
COc1ccc(C2S/C(=C\c3ccccc3O)C(=O)N2NC(=O)Cc2ccccc2)cc1 (stereo not given) |  | > 100 µM
Cc1ccc(S(=O)(=O)NCC2CCCCC2=O)cc1 (stereo not given) |  | > 100 µM
CNC(=S)NC1CCCCC1NC(=S)NC (stereo not given) |  | > 100 µM
CC1OC(n2cc(F)c(=O)[nH]c2=O)C=CC1O (stereo not given) |  | > 100 µM
C=C(C=O)[C@@H]1C2OC(=O)C(=C)[C@@H]2CC(O)[C@@]1(C)CC (stereo not given in full) |  | 5.92 µM
C=C(CCCCC)CN1CCCC1[C@@](C)(O)CC(=O)OCC (stereo not given in full) |  | > 100 µM
NC(=NCCCOc1ccc(Cl)cc1)Nc1ccc(C(F)(F)F)cc1 | 1.59 µM | 3.77 µM
